#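 GI50: concentration for 50% inhibition of growth. TGI marks complete inhibition of growth.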
# How the values were obtained:
# Test in all cases: DTP human tumour cell line panel, 384-well format
# HL-60(TB) leukemia = system: HL-60(TB) leukemia
# SN12C renal = system: SN12C renal
# NCI-H460 NSCLC = system: NCI-H460 NSCLC
# BT-549 breast = system: BT-549 breast
# NCI-H322M lung = system: NCI-H322M lung
# A549 NSCLC = system: A549 NSCLC
# U251 glioblastoma = system: U251 glioblastoma
# MCF7 breast = system: MCF7 breast
# ACHN renal = system: ACHN renal
# MOLT-4 leukemia = system: MOLT-4 leukemia
# HOP-62 NSCLC = system: HOP-62 NSCLC
# DU-145 prostate = system: DU-145 prostate
# KM12 colon = system: KM12 colon
# SNB-75 CNS = system: SNB-75 CNS
# HCT-15 colon = system: HCT-15 colon
# MDA-MB-435 melanoma = system: MDA-MB-435 melanoma
# A498 renal = system: A498 renal
# HCT-116 colon = system: HCT-116 colon
# SK-MEL-2 melanoma = system: SK-MEL-2 melanoma
# SK-MEL-28 melanoma = system: SK-MEL-28 melanoma
# PC-3 prostate = system: PC-3 prostate
# OVCAR-3 ovarian = system: OVCAR-3 ovarian
# SF-268 CNS = system: SF-268 CNS
# K-562 leukemia = system: K-562 leukemia
# RXF 393 renal = system: RXF 393 renal
# SW-620 colon = system: SW-620 colon
# 786-0 renal = system: 786-0 renal
# RPMI-8226 leukemia = system: RPMI-8226 leukemia
# NCI-H23 lung = system: NCI-H23 lung
# SK-OV-3 ovarian = system: SK-OV-3 ovarian
# IGROV1 ovarian = system: IGROV1 ovarian
# SF-295 CNS = system: SF-295 CNS
# TK-10 renal = system: TK-10 renal
# NCI/ADR-RES ovarian = system: NCI/ADR-RES ovarian
# MALME-3M melanoma = system: MALME-3M melanoma
# T-47D breast = system: T-47D breast
# CAKI-1 renal = system: CAKI-1 renal
# HS 578T breast = system: HS 578T breast
# SF-539 CNS = system: SF-539 CNS
# LOX IMVI melanoma = system: LOX IMVI melanoma
# UACC-257 melanoma = system: UACC-257 melanoma
# UO-31 renal = system: UO-31 renal
# HT29 colon = system: HT29 colon
# MDA-MB-231 breast = system: MDA-MB-231 breast
# UACC-62 melanoma = system: UACC-62 melanoma
# NCI-H226 lung = system: NCI-H226 lung
# M14 melanoma = system: M14 melanoma
# CCRF-CEM leukemia = system: CCRF-CEM leukemia
# OVCAR-5 ovarian = system: OVCAR-5 ovarian
# NCI-H522 lung = system: NCI-H522 lung
# OVCAR-4 ovarian = system: OVCAR-4 ovarian
# HOP-92 NSCLC = system: HOP-92 NSCLC
# HCC-2998 colon = system: HCC-2998 colon
# SK-MEL-5 melanoma = system: SK-MEL-5 melanoma
# OVCAR-8 ovarian = system: OVCAR-8 ovarian
# EKVX NSCLC = system: EKVX NSCLC
# SNB-19 CNS = system: SNB-19 CNS
# MDA-MB-468 breast = system: MDA-MB-468 breast
# COLO 205 colon = system: COLO 205 colon
smiles,measurement,setting,value
CCNC(=O)Nc1ccc(-c2nc3c(c(N4CCOC[C@@H]4C)n2)CCN(C2COC2)C3)cc1,GI50,HL-60(TB) leukemia,5400 nM
same,TGI,HL-60(TB) leukemia,> 100000 nM
same,GI50,SN12C renal,310 nM
same,TGI,SN12C renal,> 100000 nM
same,GI50,NCI-H460 NSCLC,108 nM
same,TGI,NCI-H460 NSCLC,> 100000 nM
same,GI50,BT-549 breast,220 nM
same,TGI,BT-549 breast,2560 nM
same,GI50,NCI-H322M lung,527 nM
same,TGI,NCI-H322M lung,> 100000 nM
same,GI50,A549 NSCLC,480 nM
same,TGI,A549 NSCLC,> 100000 nM
same,GI50,U251 glioblastoma,1350 nM
same,TGI,U251 glioblastoma,> 100000 nM
same,GI50,MCF7 breast,131 nM
same,TGI,MCF7 breast,68600 nM
same,GI50,ACHN renal,485 nM
same,TGI,ACHN renal,> 100000 nM
same,GI50,MOLT-4 leukemia,207 nM
same,TGI,MOLT-4 leukemia,11100 nM
same,GI50,HOP-62 NSCLC,494 nM
same,TGI,HOP-62 NSCLC,11000 nM
same,GI50,DU-145 prostate,640 nM
same,TGI,DU-145 prostate,> 100000 nM
same,GI50,KM12 colon,479 nM
same,TGI,KM12 colon,> 100000 nM
same,GI50,SNB-75 CNS,46.2 nM
same,TGI,SNB-75 CNS,980 nM
same,GI50,HCT-15 colon,669 nM
same,TGI,HCT-15 colon,> 100000 nM
same,GI50,MDA-MB-435 melanoma,716 nM
same,TGI,MDA-MB-435 melanoma,7410 nM
same,GI50,A498 renal,93.8 nM
same,TGI,A498 renal,1900 nM
same,GI50,HCT-116 colon,3280 nM
same,TGI,HCT-116 colon,> 100000 nM
same,GI50,SK-MEL-2 melanoma,1890 nM
same,TGI,SK-MEL-2 melanoma,7590 nM
same,GI50,SK-MEL-28 melanoma,443 nM
same,TGI,SK-MEL-28 melanoma,28000 nM
same,GI50,PC-3 prostate,218 nM
same,TGI,PC-3 prostate,> 100000 nM
same,GI50,OVCAR-3 ovarian,445 nM
same,TGI,OVCAR-3 ovarian,> 100000 nM
same,GI50,SF-268 CNS,1220 nM
same,TGI,SF-268 CNS,> 100000 nM
same,GI50,K-562 leukemia,752 nM
same,TGI,K-562 leukemia,> 100000 nM
same,GI50,RXF 393 renal,212 nM
same,TGI,RXF 393 renal,2130 nM
same,GI50,SW-620 colon,2280 nM
same,TGI,SW-620 colon,> 100000 nM
same,GI50,786-0 renal,1190 nM
same,TGI,786-0 renal,> 100000 nM
same,GI50,RPMI-8226 leukemia,38.7 nM
same,TGI,RPMI-8226 leukemia,276 nM
same,GI50,NCI-H23 lung,1910 nM
same,TGI,NCI-H23 lung,> 100000 nM
same,GI50,SK-OV-3 ovarian,189 nM
same,TGI,SK-OV-3 ovarian,5370 nM
same,GI50,IGROV1 ovarian,147 nM
same,TGI,IGROV1 ovarian,885 nM
same,GI50,SF-295 CNS,305 nM
same,TGI,SF-295 CNS,2540 nM
same,GI50,TK-10 renal,390 nM
same,TGI,TK-10 renal,5650 nM
same,GI50,NCI/ADR-RES ovarian,11400 nM
same,TGI,NCI/ADR-RES ovarian,> 100000 nM
same,GI50,MALME-3M melanoma,167 nM
same,TGI,MALME-3M melanoma,3020 nM
same,GI50,T-47D breast,26.3 nM
same,TGI,T-47D breast,437 nM
same,GI50,CAKI-1 renal,323 nM
same,TGI,CAKI-1 renal,4100 nM
same,GI50,HS 578T breast,116 nM
same,TGI,HS 578T breast,596 nM
same,GI50,SF-539 CNS,656 nM
same,TGI,SF-539 CNS,> 100000 nM
same,GI50,LOX IMVI melanoma,658 nM
same,TGI,LOX IMVI melanoma,13800 nM
same,GI50,UACC-257 melanoma,1450 nM
same,TGI,UACC-257 melanoma,14600 nM
same,GI50,UO-31 renal,654 nM
same,TGI,UO-31 renal,> 100000 nM
same,GI50,HT29 colon,4780 nM
same,TGI,HT29 colon,> 100000 nM
same,GI50,MDA-MB-231 breast,476 nM
same,TGI,MDA-MB-231 breast,> 100000 nM
same,GI50,UACC-62 melanoma,366 nM
same,TGI,UACC-62 melanoma,3810 nM
same,GI50,NCI-H226 lung,207 nM
same,TGI,NCI-H226 lung,3330 nM
same,GI50,M14 melanoma,416 nM
same,TGI,M14 melanoma,> 100000 nM
same,GI50,CCRF-CEM leukemia,325 nM
same,TGI,CCRF-CEM leukemia,19800 nM
same,GI50,OVCAR-5 ovarian,1040 nM
same,TGI,OVCAR-5 ovarian,> 100000 nM
same,GI50,NCI-H522 lung,159 nM
same,TGI,NCI-H522 lung,8130 nM
same,GI50,OVCAR-4 ovarian,279 nM
same,TGI,OVCAR-4 ovarian,3450 nM
same,GI50,HOP-92 NSCLC,605 nM
same,TGI,HOP-92 NSCLC,8680 nM
same,GI50,HCC-2998 colon,440 nM
same,TGI,HCC-2998 colon,> 100000 nM
same,GI50,SK-MEL-5 melanoma,221 nM
same,TGI,SK-MEL-5 melanoma,2260 nM
same,GI50,OVCAR-8 ovarian,966 nM
same,TGI,OVCAR-8 ovarian,> 100000 nM
same,GI50,EKVX NSCLC,381 nM
same,TGI,EKVX NSCLC,9360 nM
same,GI50,SNB-19 CNS,2820 nM
same,TGI,SNB-19 CNS,> 100000 nM
same,GI50,MDA-MB-468 breast,173 nM
same,TGI,MDA-MB-468 breast,2380 nM
same,GI50,COLO 205 colon,347 nM
same,TGI,COLO 205 colon,> 100000 nM
